Measurements taken from patent US7666891B2, “Heterocyclic antiviral compounds” (Roche Palo Alto LLC, priority 2004, dated 2010).
Like-named read-outs stand apart in the source and are kept apart here.

Columns and labels:
[1] = Determination of pharmacokinetic parameters in rats after oral gavage; type: in vivo, rat; conditions: female rats; for AUC (area under concentration vs. time curve, 0–24 h): parent triazolone measured in plasma; for concentration at 2 h / concentration at 6 h: rat, plasma; for concentration at 2 h: read-out: Cp (2 h) plasma concentration; for concentration at 6 h: read-out: Cp (6 h) plasma concentration
Description: Intact female rats weighing 200-250 g were used. Groups of three or five rats were used for each dose level of an experimental compound and one rat was used as a vehicle control. Animals were allowed normal access to chow and water throughout the experiment. The test substance was formulated as an aqueous suspension containing hydroxypropyl cellulose, polysorbate 80 and benzyl alcohol adjusted to pH 3.5 with HCl or NaOH at a dose equivalent to (0.127 mmol) and was administered orally by gavage. A blood sample (0.3 mL) was collected from the treated rats at, 2, 4, 6 and 8 h from the orbital sinus and at 24 h by cardiac puncture. A sample of at least 0.3 mL of blood was withdrawn from the untreated animals 3 h after dosing. Potassium oxalate/NaF and lithium heparin were added to the samples which were stored on ice during sampling procedure. The samples were spun in a refrigerated centrifuge at […] as soon as possible and the plasma samples were stored −20° C. immediately after centrifugation and later transferred to a −80° C. freezer until analysis. Aliquots of plasma (0.05 mL) were mixed with 0.35 mL of an internal standard (and 0.05 mL of acetonitrile containing 0.1% formic acid. A set of calibration standards was prepared by mixing 0.05-mL aliquots of plasma from untreated rats with 0.05-mL aliquots of standard solution in acetonitrile containing 0.1% formic acid and 0.35-mL aliquots of the internal standard in acetonitrile containing 0.1% formic acid). Each plasma sample and calibration standard was vortexed thoroughly and then centrifuged (3000×g) at 4° C. for 20 min to precipitate the protein. Each supernatant from centrifugation was transferred into a separate injection vial for LC/MS/MS analysis.

SMILES | melting point | also measured
Cn1c(Cc2ccc(Cl)c(Oc3cc(Cl)cc(C#N)c3)c2F)nn(COC(=O)CCC(=O)O)c1=O [Compound I-2, Succinic acid mono-{3-[4-chloro-3-(3-chloro-5-cyano-phenoxy)-2-fluoro-benzyl]-4-methyl-5-oxo-4,5-dihydro-[1,2,4]triazol-1-ylmethyl}ester] | 136.6 to 141.9 °C | –
Cn1c(Cc2ccc(Cl)c(Oc3cc(Cl)cc(C#N)c3)c2F)nn(CO)c1=O [Compound I-1] | 145.8 to 149.5 °C | –
Cn1c(Cc2ccc(Cl)c(Oc3cc(C#N)cc(C(F)F)c3)c2F)nn(COC(=O)CCC(=O)O)c1=O [Compound I-5, Succinic acid mono-{3-[4-chloro-3-(3-cyano-5-difluoromethyl-phenoxy)-2-fluoro-benzyl]-4-methyl-5-oxo-4,5-dihydro-[1,2,4]triazol-1-ylmethyl}ester] | 150.5 to 151.1 °C | –
Cn1c(Cc2ccc(Cl)c(Oc3cc(C#N)cc(C#N)c3)c2F)nn(COC(=O)CCC(=O)O)c1=O [Compound I-4, Succinic acid mono-{3-[4-chloro-3-(3,5-dicyano-phenoxy)-2-fluoro-benzyl]-4-methyl-5-oxo-4,5-dihydro-[1,2,4]triazol-1-ylmethyl}ester] | 141.6 to 143.3 °C | –
Cn1c(Cc2ccc(Br)c(Oc3cc(C#N)cc(C(F)F)c3)c2F)nn(COC(=O)CCC(=O)O)c1=O [Compound I-9, Succinic acid mono-{3-[4-bromo-3-(3-cyano-5-difluoromethyl-phenoxy)-2-fluoro-benzyl]-4-methyl-5-oxo-4,5-dihydro-[1,2,4]triazol-1-ylmethyl}ester] | 156.7 to 158 °C | –
Cc1ccc(Cc2nn(COC(=O)CCC(=O)O)c(=O)n2C)c(F)c1Oc1cc(C#N)cc(C(F)F)c1 [Compound I-7, Succinic acid mono-{3-[3-(3-cyano-5-difluoromethyl-phenoxy)-2-fluoro-4-methyl-benzyl]-4-methyl-5-oxo-4,5-dihydro-[1,2,4]triazol-1-ylmethyl}ester] | 139.2 to 140.5 °C | –
Cn1c(Cc2ccc(Cl)c(Oc3cc(C#N)cc(C#N)c3)c2F)nn(CO)c1=O [Compound I-3] | 158.9 to 162.2 °C | –
Cn1c(Cc2ccc(Cl)c(Oc3cc(C#N)cc(C(F)F)c3)c2F)n[nH]c1=O [parent] | – | AUC (area under concentration vs. time curve, 0–24 h) ([1]; dose 152 mg/kg (equimolar to I-5 200 mg/kg)): 68.8 µg·h/mL; AUC (area under concentration vs. time curve, 0–24 h) ([1]; dose 530 mg/kg (equimolar to I-5 700 mg/kg)): 85.4 µg·h/mL; concentration at 2 h ([1]; dose 152 mg/kg): 2740 ng/mL; concentration at 6 h ([1]; dose 152 mg/kg): 5020 ng/mL; concentration at 2 h ([1]; dose 530 mg/kg): 3180 ng/mL; concentration at 6 h ([1]; dose 530 mg/kg): 5970 ng/mL
CCc1ccc(Cc2nn(COC(=O)CCC(=O)O)c(=O)n2C)c(F)c1Oc1cc(C#N)cc(C(F)F)c1 [Compound I-11, succinic acid mono-{3-[3-(3-cyano-5-difluoromethyl-phenoxy)-4-ethyl-2-fluoro-benzyl]-4-methyl-5-oxo-4,5-dihydro-[1,2,4]triazol-1-ylmethyl}ester] | 152.2 to 153.5 °C | –
